Molecular target: human PCSK9 (Homo sapiens, UniProt Q8NBP7)
Assay: PCSK9 ligand binding TR-FRET assay (interference with binding of human PCSK9 to human LDLR)
Settings: for Max % inhibition: PCSK9 FRET assay, efficacy (Amax), 100% = 1 uM unlabeled human PCSK9, 0% = DMSO; for IC50: TR-FRET, human PCSK9 Alexa Fluor 647 / human LDLR extracellular domain-Europium Kryptate, read-out: PCSK9 FRET Assay IC50
Procedure, shortened: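 Threefold compound dilutions were pre-incubated 30 min with PCSK9, after which 4 nM Europium Kryptate-tagged human LDLR ectodomain was added for a further 2 h.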

Chain of human PCSK9 (Q8NBP7 153-692): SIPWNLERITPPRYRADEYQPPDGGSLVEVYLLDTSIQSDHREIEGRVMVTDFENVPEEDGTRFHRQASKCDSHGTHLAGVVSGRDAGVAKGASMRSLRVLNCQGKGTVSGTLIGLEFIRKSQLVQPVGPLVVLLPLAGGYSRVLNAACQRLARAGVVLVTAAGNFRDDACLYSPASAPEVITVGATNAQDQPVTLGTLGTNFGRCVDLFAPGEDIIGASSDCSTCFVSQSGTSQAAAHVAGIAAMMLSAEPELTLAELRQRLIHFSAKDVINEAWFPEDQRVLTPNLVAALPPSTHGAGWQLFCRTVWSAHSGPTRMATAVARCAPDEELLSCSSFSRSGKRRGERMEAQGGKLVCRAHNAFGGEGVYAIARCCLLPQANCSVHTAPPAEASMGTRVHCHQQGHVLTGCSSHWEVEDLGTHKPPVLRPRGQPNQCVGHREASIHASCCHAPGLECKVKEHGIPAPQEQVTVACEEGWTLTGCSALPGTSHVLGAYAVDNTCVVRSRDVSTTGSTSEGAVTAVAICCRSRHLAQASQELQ
Chain of human PCSK9 (Q8NBP7 31-152 partner limits assumed): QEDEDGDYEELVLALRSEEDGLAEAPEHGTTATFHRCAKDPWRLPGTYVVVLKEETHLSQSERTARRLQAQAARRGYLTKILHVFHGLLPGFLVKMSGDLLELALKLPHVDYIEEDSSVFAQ

Max % inhibition [%] | IC50 [nM] | SMILES
88.46 | 16.8 | COC[C@@H]1NC(=O)[C@H](C)N(Cc2c(Oc3ccc(-c4cnc(CN(C)C)n4C)cc3)cccc2OC(F)F)C(=O)C[C@@H](C)C(=O)N(C)[C@@H](C)CNC(=O)C[C@H](Cc2ccc(Cl)cc2)N(C)C1=O [Compound 62, (5S,8S,13S,16R)-8-(4-chlorobenzyl)-1-(2-(difluoromethoxy)-6-(4-(2-((dimethylamino)methyl)-1-methyl-1H-imidazol-5-yl)phenoxy)benzyl)-5-(methoxymethyl)-2,7,13,14,16-pentamethyl-1,4,7,11,14-pentaazacyclooctadecane-3,6,10,15,18-pentaone]
95.33 | 6.6 | COC[C@@H]1NC(=O)[C@H](C)N(Cc2c(F)cc(F)cc2Oc2ccc(-c3cnc(CN(C)C)n3C)cc2)C(=O)C[C@@H](Cc2ccccc2)C(=O)N(C)[C@@H](C)CNC(=O)C[C@H](Cc2ccc(Cl)cc2)N(C)C1=O [Compound 236, (2S,5S,8S,13S,16R)-16-benzyl-8-(4-chlorobenzyl)-1-(2-(4-(2-((dimethylamino)methyl)-1-methyl-1H-imidazol-5-yl)phenoxy)-4,6-difluorobenzyl)-5-(methoxymethyl)-2,7,13,14-tetramethyl-1,4,7,11,14-pentaazacyclooctadecane-3,6,10,15,18-pentaone]
97.92 | 3 | COC[C@@H]1NC(=O)[C@H](C)N(Cc2c(Oc3ccc(-c4cnc(CN(C)C)n4C)cc3)cccc2OC(F)F)C(=O)CCC(=O)N(C)[C@H]2CCCC[C@@H]2NC(=O)C[C@H](Cc2ccc(Cl)cc2)N(C)C1=O [Compound 196, (4S,7S,10S,16aS,20aS)-4-(4-chlorobenzyl)-11-(2-(difluoromethoxy)-6-(4-(2-((dimethylamino)methyl)-1-methyl-1H-imidazol-5-yl)phenoxy)benzyl)-7-(methoxymethyl)-5,10,16-trimethylhexadecahydrobenzo[l][1,4,7,11,14]pentaazacyclooctadecine-2,6,9,12,15(3H)-pentaone]

Further lines, the compound ahead of its results:

SMILES | Max % inhibition [%] | IC50 [nM]
COC[C@@H]1NC(=O)[C@H](C)N(Cc2ccc(Cl)cc2Oc2ccc(-c3ccc(C(=O)NC4CCNCC4)nc3)cc2)C(=O)C[C@@H](Cc2ccccc2)C(=O)N(C)[C@@H](C)CNC(=O)C[C@H](Cc2ccc(Cl)cc2)N(C)C1=O.O=C(O)C(F)(F)F [Compound 122, 5-(4-(2-(((2S,5S,8S,13S,16R)-16-benzyl-8-(4-chlorobenzyl)-5-(methoxymethyl)-2,7,13,14-tetramethyl-3,6,10,15,18-pentaoxo-1,4,7,11,14-pentaazacyclooctadecan-1-yl)methyl)-5-chlorophenoxy)phenyl)-N-(piperidin-4-yl)picolinamide trifluoroacetate] | 55.05 | 8.7
COC[C@@H]1NC(=O)[C@H](C)N(Cc2ccc(Cl)cc2Oc2ccc(-c3cnc(CN4CCCC4)n3C)cc2)C(=O)C[C@@H](Cc2ccccc2)C(=O)N(C)[C@@H](CCN(C)C)CNC(=O)C[C@H](Cc2ccc(Cl)cc2)N(C)C1=O [Compound 190, (2S,5S,8S,13S,16R)-16-benzyl-1-(4-chloro-2-(4-(1-methyl-2-(pyrrolidin-1-ylmethyl)-1H-imidazol-5-yl)phenoxy)benzyl)-8-(4-chlorobenzyl)-13-(2-(dimethylamino)ethyl)-5-(methoxymethyl)-2,7,14-trimethyl-1,4,7,11,14-pentaazacyclooctadecane-3,6,10,15,18-pentaone] | 100.60 | 32.6
COC[C@@H]1NC(=O)[C@H](CC(F)F)N(Cc2ccc(Cl)cc2Oc2ccc(-c3cnc(CN4CCCC4)n3C)cc2)C(=O)C[C@@H](Cc2ccccc2)C(=O)N(C)[C@@H](C)CNC(=O)C[C@H](Cc2ccc(Cl)cc2)N(C)C1=O [Compound 97, (2S,5S,8S,13S,16R)-16-benzyl-1-(4-chloro-2-(4-(1-methyl-2-(pyrrolidin-1-ylmethyl)-1H-imidazol-5-yl)phenoxy)benzyl)-8-(4-chlorobenzyl)-2-(2,2-difluoroethyl)-5-(methoxymethyl)-7,13,14-trimethyl-1,4,7,11,14-pentaazacyclooctadecane-3,6,10,15,18-pentaone] | 90.83 | 2.2

Source: US20230089867A1, “CYCLIC PENTAMER COMPOUNDS AS PROPROTEIN CONVERTASE SUBTILISIN/KEXIN TYPE 9 (PCSK9) INHIBITORS FOR THE TREATMENT OF METABOLIC DISORDER” (Novartis AG, priority 2018, published 2023)
